According to ChEMBL document CHEMBL3877331, “Affinity-Based Selectivity Profiling of an In-Class Selective Competitive Inhibitor of Acyl Protein Thioesterase 2” (ACS Med Chem Lett, 2017):
Activity calls are given as the source filed them. The rule behind the calls is not given here.

Key:
[1] = biological target: T1, Acyl-protein thioesterase 2 (Homo sapiens, UniProt O95372); experiment: Competitive inhibition of HEK293T cells-derived His-tagged APT2 expressed in Escherichia coli BL21(DE3) preincubated for 30 mins followed by substrate addition by resorufin dye based acetate hydrolysis assay; parameters: species or system HEK-293T
T1 sequence (O95372 whole entry): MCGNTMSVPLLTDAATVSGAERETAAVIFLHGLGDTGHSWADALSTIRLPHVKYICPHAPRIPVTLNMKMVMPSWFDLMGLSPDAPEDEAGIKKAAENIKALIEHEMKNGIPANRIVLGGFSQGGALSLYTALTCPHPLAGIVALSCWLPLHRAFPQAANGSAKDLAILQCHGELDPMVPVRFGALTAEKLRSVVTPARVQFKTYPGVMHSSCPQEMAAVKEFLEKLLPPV

[2] = biological target: T2, Ribosyldihydronicotinamide dehydrogenase [quinone] (Homo sapiens) (UniProt P16083); experiment: Binding affinity to NQO2 in HEK293T cells at 50 uM incubated for 1 hr by mass spectrometry analysis relative to azide-PEG3-biotin; type: cell-based; details: HEK-293T
T2 sequence (whole entry): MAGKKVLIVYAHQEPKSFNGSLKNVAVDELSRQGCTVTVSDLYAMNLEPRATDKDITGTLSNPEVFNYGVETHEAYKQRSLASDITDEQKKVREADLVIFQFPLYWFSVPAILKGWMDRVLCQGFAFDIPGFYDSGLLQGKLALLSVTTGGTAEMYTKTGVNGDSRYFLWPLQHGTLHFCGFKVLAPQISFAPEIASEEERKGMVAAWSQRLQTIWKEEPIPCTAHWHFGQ

[3] = biological target: FAD synthase (Homo sapiens) (UniProt Q8NFF5); experiment: Binding affinity to FAD1 in HEK293T cells at 50 uM incubated for 1 hr by mass spectrometry analysis relative to azide-PEG3-biotin; type: cell-based; details: HEK-293T
FAD synthase (Homo sapiens), sequence (Q8NFF5 whole entry): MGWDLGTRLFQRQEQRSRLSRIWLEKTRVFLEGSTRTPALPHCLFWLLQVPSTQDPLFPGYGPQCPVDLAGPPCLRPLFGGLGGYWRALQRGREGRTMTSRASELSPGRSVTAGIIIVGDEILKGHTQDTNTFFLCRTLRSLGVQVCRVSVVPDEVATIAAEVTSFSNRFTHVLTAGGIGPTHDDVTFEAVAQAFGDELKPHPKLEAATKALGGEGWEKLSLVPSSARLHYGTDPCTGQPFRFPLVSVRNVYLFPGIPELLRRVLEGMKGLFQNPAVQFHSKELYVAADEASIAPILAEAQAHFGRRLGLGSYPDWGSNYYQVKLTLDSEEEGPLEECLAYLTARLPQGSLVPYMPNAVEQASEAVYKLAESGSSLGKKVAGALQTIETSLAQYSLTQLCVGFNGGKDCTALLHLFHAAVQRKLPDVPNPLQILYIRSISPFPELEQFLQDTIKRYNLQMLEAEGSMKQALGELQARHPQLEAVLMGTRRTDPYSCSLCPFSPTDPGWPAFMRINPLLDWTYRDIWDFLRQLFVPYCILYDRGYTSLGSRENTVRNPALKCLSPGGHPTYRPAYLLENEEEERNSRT

[4] = biological target: Adenosine kinase (Homo sapiens) (UniProt P55263); experiment: Binding affinity to ADK in HEK293T cells at 50 uM incubated for 1 hr by mass spectrometry analysis relative to o-ML349-biotin; type: cell-based; details: HEK-293T
Adenosine kinase (Homo sapiens), sequence (P55263 2-362 limits assumed): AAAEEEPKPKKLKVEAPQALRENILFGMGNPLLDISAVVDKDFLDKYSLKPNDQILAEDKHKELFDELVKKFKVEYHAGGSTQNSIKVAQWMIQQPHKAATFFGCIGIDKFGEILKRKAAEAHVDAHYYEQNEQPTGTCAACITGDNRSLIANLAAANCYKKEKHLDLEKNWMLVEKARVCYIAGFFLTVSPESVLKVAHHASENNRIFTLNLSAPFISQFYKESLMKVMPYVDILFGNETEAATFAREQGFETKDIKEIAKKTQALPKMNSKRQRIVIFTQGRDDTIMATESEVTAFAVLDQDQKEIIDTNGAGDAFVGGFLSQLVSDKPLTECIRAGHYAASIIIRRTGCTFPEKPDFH

[5] = biological target: T1, Acyl-protein thioesterase 2; experiment: Binding affinity to APT2 in HEK293T cells at 50 uM preincubated for 1 hr followed by FP-TAMRA labeling by in-gel fluorescence assay; type: cell-based; details: HEK-293T
[6] = biological target: T1, Acyl-protein thioesterase 2; experiment: Binding affinity to APT2 in HEK293T cells at 50 uM incubated for 1 hr by mass spectrometry analysis relative to o-ML349-biotin; type: cell-based; details: HEK-293T
[7] = biological target: Deoxycytidine kinase (Homo sapiens) (UniProt P27707); experiment: Binding affinity to DCK in HEK293T cells at 50 uM incubated for 1 hr by mass spectrometry analysis relative to o-ML349-biotin; type: cell-based; details: HEK-293T
Deoxycytidine kinase (Homo sapiens), sequence (P27707 whole entry, looked up): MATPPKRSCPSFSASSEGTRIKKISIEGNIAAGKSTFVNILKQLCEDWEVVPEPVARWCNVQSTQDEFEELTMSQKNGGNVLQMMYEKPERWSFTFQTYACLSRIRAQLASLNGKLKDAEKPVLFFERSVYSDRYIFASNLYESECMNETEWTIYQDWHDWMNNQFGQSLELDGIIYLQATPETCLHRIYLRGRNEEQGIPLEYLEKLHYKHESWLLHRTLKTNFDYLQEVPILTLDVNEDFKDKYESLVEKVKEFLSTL

[8] = biological target: T3, Pyridoxal kinase (Homo sapiens) (UniProt O00764); experiment: Binding affinity to PDXK in HEK293T cells at 50 uM incubated for 1 hr by mass spectrometry analysis relative to o-ML349-biotin; type: cell-based; details: HEK-293T
T3 sequence (whole entry): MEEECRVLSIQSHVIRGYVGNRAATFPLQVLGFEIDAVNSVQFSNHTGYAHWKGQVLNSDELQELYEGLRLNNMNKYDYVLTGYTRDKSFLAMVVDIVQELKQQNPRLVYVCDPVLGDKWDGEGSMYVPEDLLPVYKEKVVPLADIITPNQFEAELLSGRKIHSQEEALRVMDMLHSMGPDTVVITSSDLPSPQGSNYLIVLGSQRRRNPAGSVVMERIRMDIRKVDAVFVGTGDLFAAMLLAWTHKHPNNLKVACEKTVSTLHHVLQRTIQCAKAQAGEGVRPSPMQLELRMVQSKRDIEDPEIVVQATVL

[9] = biological target: T2, Ribosyldihydronicotinamide dehydrogenase [quinone] (Homo sapiens); experiment: Binding affinity to NQO2 in HEK293T cells at 50 uM incubated for 1 hr by mass spectrometry analysis relative to o-ML349-biotin; type: cell-based; details: HEK-293T
[10] = biological target: FAD synthase (Homo sapiens) (UniProt Q8NFF5); experiment: Binding affinity to FAD1 in HEK293T cells at 50 uM incubated for 1 hr by mass spectrometry analysis relative to o-ML349-biotin; type: cell-based; details: HEK-293T
[11] = biological target: T1, Acyl-protein thioesterase 2; experiment: Binding affinity to APT2 in HEK293T cells at 50 uM incubated for 1 hr by mass spectrometry analysis relative to azide-PEG3-biotin; type: cell-based; details: HEK-293T
[12] = biological target: Adenosine kinase (Homo sapiens) (UniProt P55263); experiment: Binding affinity to ADK in HEK293T cells at 50 uM incubated for 1 hr by mass spectrometry analysis relative to azide-PEG3-biotin; type: cell-based; details: HEK-293T
[13] = biological target: Deoxycytidine kinase (Homo sapiens) (UniProt P27707); experiment: Binding affinity to DCK in HEK293T cells at 50 uM incubated for 1 hr by mass spectrometry analysis relative to azide-PEG3-biotin; type: cell-based; details: HEK-293T
[14] = biological target: T3, Pyridoxal kinase (Homo sapiens); experiment: Binding affinity to PDXK in HEK293T cells at 50 uM incubated for 1 hr by mass spectrometry analysis relative to azide-PEG3-biotin; type: cell-based; details: HEK-293T
MDCK = experiment: Binding affinity to APT2 in MDCK cells at 50 uM incubated for 1 hr by mass spectrometry analysis; type: cell-based; details: Canis lupus familiaris
[15] = biological target: T1, Acyl-protein thioesterase 2; experiment: Inhibition of fluorescein-labeled ML349 binding to HEK293T cells-derived His-tagged APT2 expressed in Escherichia coli BL21(DE3) after 30 mins by fluorescence polarization assay; parameters: species or system HEK-293T
Pyridoxal kinase = biological target: T4, Pyridoxal kinase (Homo sapiens, UniProt O00764); experiment: Inhibition of fluorescein-labeled ML349 binding to HEK293T cells-derived His-tagged PDXK expressed in Escherichia coli BL21(DE3) after 30 mins by fluorescence polarization assay; parameters: species or system HEK-293T
T4 sequence (O00764 whole entry): T3 sequence (whole entry)

[16] = biological target: T1, Acyl-protein thioesterase 2; experiment: Binding affinity to HEK293T cells-derived His-tagged APT2 expressed in Escherichia coli BL21(DE3) assessed as stoichiometric complex formation at 10 uM after 5 mins by electrospray ionization native mass spectrometry; details: HEK-293T
[17] = biological target: T3, Pyridoxal kinase (Homo sapiens); experiment: Binding affinity to HEK293T cells-derived His-tagged PDXK expressed in Escherichia coli BL21(DE3) assessed as stoichiometric complex formation at 10 uM after 5 mins by electrospray ionization native mass spectrometry; details: HEK-293T
[18] = biological target: T2, Ribosyldihydronicotinamide dehydrogenase [quinone] (Homo sapiens); experiment: Binding affinity to HEK293T cells-derived His-tagged NQO2 expressed in Escherichia coli BL21(DE3) assessed as stoichiometric complex formation at 10 uM after 5 mins by electrospray ionization native mass spectrometry; details: HEK-293T

Row | Ki [1] | fold change (FC) [2] | fold change (FC) [3] | fold change (FC) [4] | Activity [5] | fold change (FC) [6] | fold change (FC) [7] | fold change (FC) [8] | fold change (FC) [9] | fold change (FC) [10] | fold change (FC) [11] | fold change (FC) [12] | fold change (FC) [13] | fold change (FC) [14] | IC50 [15] | IC50 (Pyridoxal kinase) | Activity [16] | Activity [17] | Activity [18] | Compound | Activity (MDCK)
1 | > 10 µM | – | – | – | – | – | – | – | – | – | – | – | – | – | – | – | – | – | – | [N-]=[N+]=NCCOCCOCCOCCNC(=O)CCCC[C@@H]1SC[C@@H]2NC(=O)N[C@@H]21 | –
2 | > 10 µM | 3 | 3 | – | – | – | – | – | – | – | – | – | – | – | – | – | – | – | – | O=C(CCCC[C@@H]1SC[C@@H]2NC(=O)N[C@@H]21)NCCOCCOCCOCCn1cc(COc2ccccc2N2CCN(C(=O)c3cc4c(s3)-c3ccccc3S(=O)(=O)C4)CC2)nn1 | –
3 | 1.1 µM | > 5 | > 5 | > 5 | Active | > 5 | > 5 | > 5 | > 5 | > 5 | > 5 | > 5 | > 5 | > 5 | > 10 µM | > 10 µM | Active | Active | Active | O=C(CCCC[C@@H]1SC[C@@H]2NC(=O)N[C@@H]21)NCCOCCOCCOCCn1cc(COc2ccc(N3CCN(C(=O)c4cc5c(s4)-c4ccccc4S(=O)(=O)C5)CC3)cc2)nn1 | Active
4 | – | – | – | – | – | – | – | – | – | – | – | – | – | – | – | > 10 µM | Active | Active | Active | COc1ccc(N2CCN(C(=O)c3cc4c(s3)-c3ccccc3S(=O)(=O)C4)CC2)cc1 | –
